Laboratory results: patent US12071425B2 (Genentech, Inc., priority 2018, dated 2024)
Structures can show the parent of a compound that is named as a salt.

Target: kinase domain of IRE1 alpha (His-tagged kinase dead construct KR, AA G547-L977, D688N) (Homo sapiens (Human), UniProt O75460, D688N)
Test: IRE1α TR-FRET competition binding assay
Settings: competition with Kinase Tracer 236, 0.1 μM; one hour at room temperature
Outline: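 Sf9-expressed kinase-dead KR construct (0.006 μM final) pre-incubated 1 h at 4° C with Eu anti-His antibody (0.002 μM) in HEPES pH 7.5/MgCl2/Brij/DTT buffer; Kinase Tracer 236 (ATP-competitive probe, 0.1 μM final) added with compound. 1 h at room temperature; tracer displacement read by TR-FRET (665/615 nm).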

Chain of kinase domain of IRE1 alpha (His-tagged kinase dead construct KR, AA G547-L977, D688N) (O75460 547-977 D688N): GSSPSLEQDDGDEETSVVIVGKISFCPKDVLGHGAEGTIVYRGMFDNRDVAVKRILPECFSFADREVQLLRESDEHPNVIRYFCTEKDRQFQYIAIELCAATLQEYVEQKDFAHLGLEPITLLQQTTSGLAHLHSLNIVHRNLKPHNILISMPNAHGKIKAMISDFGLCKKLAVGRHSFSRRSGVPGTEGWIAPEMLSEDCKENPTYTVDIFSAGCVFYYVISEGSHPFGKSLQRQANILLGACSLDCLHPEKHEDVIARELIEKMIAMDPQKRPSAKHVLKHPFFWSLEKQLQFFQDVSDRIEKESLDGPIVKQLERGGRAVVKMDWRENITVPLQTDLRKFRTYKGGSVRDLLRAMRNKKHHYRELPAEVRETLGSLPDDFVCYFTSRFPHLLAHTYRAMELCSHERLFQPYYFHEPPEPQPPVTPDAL

SMILES | IC50 [nM]
O=S(=O)(Cc1ccncc1)Nc1c(F)cc(Oc2ncccc2-c2ccnc(N[C@@H]3CNC[C@@H](F)C3)n2)c(F)c1F [Compound 359] | 0.3
N#Cc1cc(F)ccc1CS(=O)(=O)Nc1c(F)cc(Oc2ncccc2-c2ccnc(N[C@@H]3CNC[C@@H](F)C3)n2)c(F)c1F [Compound 357, 1-(2-Cyano-4-fluoro-phenyl)-N-[2,3,6-trifluoro-4-[[3-[2-[[(3S,5S)-5-fluoro-3-piperidyl]amino]pyrimidin-4-yl]-2-pyridyl]oxy]phenyl]methanesulfonamide] | 1
O=S(=O)(Cc1ccc(F)cc1F)Nc1c(F)cc(Oc2ncccc2-c2ccnc(N[C@@H]3CNC[C@@H](F)C3)n2)c(F)c1F [Compound 351, 1-(2,4-Difluorophenyl)-N-[2,3,6-trifluoro-4-[[3-[2-[[(3S,5S)-5-fluoro-3-piperidyl]amino]pyrimidin-4-yl]-2-pyridyl]oxy]phenyl]methanesulfonamide] | 0.91
O=S(=O)(Nc1c(F)cc(Oc2ncccc2-c2ccnc(N[C@@H]3CNC[C@@H](F)C3)n2)c(F)c1F)N1CCCCC1 [Compound 263, N-(2,3,6-Trifluoro-4-((3-(2-(((3S,5S)-5-fluoropiperidin-3-yl)amino)pyrimidin-4-yl)pyridin-2-yl)oxy)phenyl)piperidine-1-sulfonamide] | 1.5
O=S(=O)(Cc1ccc(F)cc1Cl)Nc1c(F)cc(Oc2ncccc2-c2ccnc(N[C@@H]3CNC[C@@H](F)C3)n2)c(F)c1F [Compound 365, 1-(2-Chloro-4-fluoro-phenyl)-N-[2,3,6-trifluoro-4-[[3-[2-[[(3S,5S)-5-fluoro-3-piperidyl]amino]pyrimidin-4-yl]-2-pyridyl]oxy]phenyl]methanesulfonamide] | 0.7
CN(C)S(=O)(=O)Nc1c(F)cc(Oc2ncccc2-c2ccnc(N[C@@H]3CNC[C@@H](F)C3)n2)c(F)c1F [Compound 266, 4-(2-(4-(Dimethylsulfamoylamino)-2,3,5-trifluoro-phenoxy)-3-pyridyl)-2-(((3S,5S)-5-fluoro-3-piperidyl)amino)pyrimidine] | 8.6
N[C@H]1CC[C@H](Nc2nccc(-c3cccnc3Oc3c(F)cc(NS(=O)(=O)c4ccccc4Cl)cc3Cl)n2)CC1 [Compound 104, N-[4-[[3-[2-[(4-aminocyclohexyl)amino]pyrimidin-4-yl]-2-pyridyl]oxy]-3-chloro-5-fluoro-phenyl]-2-chloro-benzenesulfonamide hydrochloride] | 5.9
O=S(=O)(Cc1ccc(C(F)F)cc1)Nc1c(F)cc(Oc2ncccc2-c2ccnc(N[C@@H]3CNC[C@@H](F)C3)n2)c(F)c1F [Compound 371, 1-(4-(Difluoromethyl)phenyl)-N-(2,3,6-trifluoro-4-((3-(2-(((3S,5S)-5-fluoropiperidin-3-yl)amino)pyrimidin-4-yl)pyridin-2-yl)oxy)phenyl)methanesulfonamide] | 0.3
CC(C)(F)C1CNCC(Nc2nccc(-c3cccnc3Oc3cc(F)c(NS(=O)(=O)Cc4ccccc4)c(F)c3F)n2)C1 (single isomer, unassigned) [Compound 335, 1-Phenyl-N-(2,3,6-trifluoro-4-((3-(2-((5-(2-fluoropropan-2-yl)piperidin-3-yl)amino)pyrimidin-4-yl)pyridin-2-yl)oxy)phenyl)methanesulfonamide hydrochloride] | 330
O=S(=O)(Cc1c(F)cccc1Cl)Nc1c(F)cc(Oc2ncccc2-c2ccnc(N[C@@H]3CNC[C@@H](F)C3)n2)c(F)c1F [Compound 367, 1-(2-Chloro-6-fluorophenyl)-N-(2,3,6-trifluoro-4-((3-(2-(((3S,5S)-5-fluoropiperidin-3-yl)amino)pyrimidin-4-yl)pyridin-2-yl)oxy)phenyl)methanesulfonamide] | 0.2
COCCS(=O)(=O)Nc1c(F)cc(Oc2ncccc2-c2ccnc(N[C@@H]3CNC[C@@H](F)C3)n2)c(F)c1F [Compound 252, 2-Methoxy-N-(2,3,6-trifluoro-4-((3-(2-(((3S,5S)-5-fluoropiperidin-3-yl)amino)pyrimidin-4-yl)pyridin-2-yl)oxy)phenyl)ethane-1-sulfonamide] | 14
CCCS(=O)(=O)Nc1cc(C)c(Oc2ncccc2-c2ccnc(N[C@H]3CC[C@H](N)CC3)n2)c(F)c1 [Compound 118, N-(4-((3-(2-(((1r,4r)-4-aminocyclohexyl)amino)pyrimidin-4-yl)pyridin-2-yl)oxy)-3-fluoro-5-methylphenyl)propane-1-sulfonamide hydrochloride] | 47
CC(F)(F)C1CNCC(Nc2nccc(-c3cccnc3Oc3cc(F)c(NS(=O)(=O)Cc4ccccc4)c(F)c3F)n2)C1 (single isomer, unassigned) [Compound 338, N-(4-((3-(2-((5-(1, l-Difluoroethyl)piperidin-3-yl)amino)pyrimidin-4-yl)pyridin-2-yl)oxy)-2,3,6-trifluorophenyl)-1-phenylmethanesulfonamide] | 2.6
CCCS(=O)(=O)Nc1c(F)cc(Oc2ncccc2-c2ccnc(N[C@H]3CC[C@H](N(C)C)CC3)n2)c(F)c1F [Compound 309, N-(4-((3-(2-(((1r,4r)-4-(Dimethylamino)cyclohexyl)amino)pyrimidin-4-yl)pyridin-2-yl)oxy)-2,3,6-trifluorophenyl)propane-1-sulfonamide] | 1.1
C[C@@]1(F)CNC[C@@H](Nc2nccc(-c3cccnc3Oc3cc(F)c(NS(=O)(=O)Cc4ccccc4F)c(F)c3F)n2)C1 [Compound 275, 1-(2-Fluorophenyl)-N-(2,3,6-trifluoro-4-((3-(2-(((3S,5S)-5-fluoro-5-methylpiperidin-3-yl)amino)pyrimidin-4-yl)pyridin-2-yl)oxy)phenyl)methanesulfonamide] | 0.23
CN1CCN(Cc2ccc(NC(=O)Nc3ccc(Oc4ncccc4-c4ccnc(N[C@@H]5CNC[C@@H](F)C5)n4)cc3)cc2C(F)(F)F)CC1 [Compound 285, 1-(4-((3-(2-(((3S,5S)-5-Fluoropiperidin-3-yl)amino)pyrimidin-4-yl)pyridin-2-yl)oxy)phenyl)-3-(4-((4-methylpiperazin-1-yl)methyl)-3-(trifluoromethyl)phenyl)urea hydrochloride] | 8.9

Second part, the compound after the results:

IC50 [nM] | SMILES
0.3 | COC1CNCC(Nc2nccc(-c3cccnc3Oc3cc(F)c(NS(=O)(=O)Cc4ccccc4)c(F)c3F)n2)C1 (single isomer, unassigned) [Compound 318, 1-Phenyl-N-(2,3,6-trifluoro-4-((3-(2-((5-methoxypiperidin-3-yl)amino)pyrimidin-4-yl)pyridin-2-yl)oxy)phenyl)methanesulfonamide]
0.8 | C[C@H](c1ccccc1)S(=O)(=O)Nc1c(F)cc(Oc2ncccc2-c2ccnc(N[C@@H]3CNC[C@@H](F)C3)n2)c(F)c1F (single isomer, unassigned) [Compound 388, (*R)-1-phenyl-N-(2,3,6-trifluoro-4-((3-(2-(((3S,5S)-5-fluoropiperidin-3-yl)amino)pyrimidin-4-yl)pyridin-2-yl)oxy)phenyl)ethane-1-sulfonamide]
2 | O=S(=O)(Cc1ccccc1)Nc1c(F)cc(Oc2ncccc2-c2ccnc(N[C@@H]3CNC[C@H](F)C3)n2)c(F)c1F [Compound 259, 1-Phenyl-N-(2,3,6-trifluoro-4-((3-(2-(((3S,5R)-5-fluoropiperidin-3-yl)amino)pyrimidin-4-yl)pyridin-2-yl)oxy)phenyl)methanesulfonamide]
8.3 | O=S(=O)(CC1CCC1)Nc1ccc(Oc2ncccc2-c2ccnc(N[C@H]3CCCNC3)n2)c(F)c1F [Compound 173, (S)-1-cyclobutyl-N-(2,3-difluoro-4-((3-(2-(piperidin-3-ylamino)pyrimidin-4-yl)pyridin-2-yl)oxy)phenyl)methanesulfonamide]
46 | Cc1c(NS(=O)(=O)c2ccccc2Cl)cccc1Oc1ncccc1-c1ccnc(N[C@H]2CCCNC2)n1 [Compound 139, (S)-2-Chloro-N-(2-methyl-3-((3-(2-(piperidin-3-ylamino)pyrimidin-4-yl)pyridin-2-yl)oxy)phenyl)benzenesulfonamide hydrochloride]
23 | CC(C)(C#N)CCS(=O)(=O)Nc1ccc(Oc2ncccc2-c2ccnc(N[C@H]3CCCNC3)n2)c(F)c1F [Compound 210, (S)-3-cyano-N-(2,3-difluoro-4-((3-(2-(piperidin-3-ylamino)pyrimidin-4-yl)pyridin-2-yl)oxy)phenyl)-3-methylbutane-1-sulfonamide]
41 | Cc1ccc(NS(=O)(=O)c2ccccc2Cl)cc1Oc1ncccc1-c1ccnc(N[C@H]2CCCNC2)n1 [Compound 135, (S)-2-Chloro-N-(4-methyl-3-((3-(2-(piperidin-3-ylamino)pyrimidin-4-yl)pyridin-2-yl)oxy)phenyl)benzenesulfonamide hydrochloride]
16 | O=S(=O)(Cc1ccccc1)Nc1cccc(Oc2ncccc2-c2ccnc(N[C@H]3CCCNC3)n2)c1F [Compound 142, (S)—N-(2-Fluoro-3-((3-(2-(piperidin-3-ylamino)pyrimidin-4-yl)pyridin-2-yl)oxy)phenyl)-1-phenylmethanesulfonamide hydrochloride]
4.2 | O=S(=O)(Cc1ccccc1)Nc1ccc(Oc2ncccc2-c2ccnc(N[C@H]3CCCNC3)n2)c(F)c1Cl [Compound 161, (S)—N-(2-Chloro-3-fluoro-4-((3-(2-(piperidin-3-ylamino)pyrimidin-4-yl)pyridin-2-yl)oxy)phenyl)-1-phenylmethanesulfonamide]
33 | COc1ccc(S(=O)(=O)Nc2ccc(Oc3ncccc3-c3ccnc(N[C@H]4CCCNC4)n3)c(F)c2F)cc1 [Compound 211, (S)-N-(2,3-difluoro-4-((3-(2-(piperidin-3-ylamino)pyrimidin-4-yl)pyridin-2-yl)oxy)phenyl)-4-methoxybenzenesulfonamide]
26 | O=S(=O)(CCC(F)(F)F)Nc1cc(F)c(Oc2ncccc2-c2ccnc(N[C@H]3CCCNC3)n2)cc1F [Compound 109, (S)-N-(2,5-difluoro-4-((3-(2-(piperidin-3-ylamino)pyrimidin-4-yl)pyridin-2-yl)oxy)phenyl)-3,3,3-trifluoropropane-1-sulfonamide hydrochloride]
